# From patent publication US11274090B2, “P300/CBP HAT inhibitors” (Constellation Pharmaceuticals, Inc., priority 2018, dated 2022)
# Molecular target: p300 HAT domain (residues 1287-1666) (Homo sapiens (Human), UniProt Q09472)
# Assay: p300 HAT SPA assay (scintillation proximity assay, acetylation of biotinylated H3(1-21) peptide)
# Type: biochemical
# Conditions: average of at least 2 replicate titrations
# Summary of the method: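 Scintillation proximity readout of acetylated biotin-H3(1-21) captured on streptavidin plates after 1.5 hr at RT; enzyme was Ni2+/anion-exchange-purified HAT domain in 20 mM Hepes pH 7.5. Inhibitor IC50s calculated from the data.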
# Sequence of p300 HAT domain (residues 1287-1666) (Q09472 1287-1666): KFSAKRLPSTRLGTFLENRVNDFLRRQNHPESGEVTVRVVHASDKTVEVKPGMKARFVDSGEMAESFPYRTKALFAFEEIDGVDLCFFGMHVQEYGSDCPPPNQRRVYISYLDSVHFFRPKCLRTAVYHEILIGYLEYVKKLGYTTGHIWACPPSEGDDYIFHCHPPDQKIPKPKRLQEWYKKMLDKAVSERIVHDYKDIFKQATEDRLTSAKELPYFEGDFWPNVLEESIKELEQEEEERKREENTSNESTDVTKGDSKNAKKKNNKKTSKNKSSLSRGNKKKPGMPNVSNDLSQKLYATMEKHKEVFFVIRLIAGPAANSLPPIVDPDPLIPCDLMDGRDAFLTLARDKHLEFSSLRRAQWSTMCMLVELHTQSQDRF
row,Compound,IC50
1,"CC(CNC(C(=O)Nc1ccc(-c2cn(C)nn2)cn1)c1ccccc1)c1ccc(C#N)cc1 (single isomer, unassigned) [100 Isomer 4]",> 2000 nM
2,"CC(CNC(C(=O)Nc1ccc(N2CCN(C)C(=O)C2)cn1)c1ccccc1)c1ccc(C#N)cc1 (single isomer, unassigned) [101 Isomer 2]",245 nM
3,"CC(CNC(C(=O)Nc1ccc(N2CCN(C)C(=O)C2)cn1)c1ccccc1)c1ccc(C#N)cc1 (single isomer, unassigned) [101 Isomer 3]",355 nM
4,"CC(CNC(C(=O)Nc1ccc(N2CCN(C)C(=O)C2)cn1)c1ccccc1)c1ccc(C#N)cc1 (single isomer, unassigned) [101 Isomer 4]",> 2000 nM
5,"CCN1CCN(c2ccc(NC(=O)C(NC[C@@H](C)c3ccc(C#N)cc3)c3ccccc3)nc2)CC1=O (single isomer, unassigned) [102 Isomer 1]",30.8 nM
6,"CCN1CCN(c2ccc(NC(=O)C(NC[C@@H](C)c3ccc(C#N)cc3)c3ccccc3)nc2)CC1=O (single isomer, unassigned) [102 Isomer 2]",1550 nM
7,"CC(CNC(C(=O)Nc1ccc(N2CCN(CC(F)(F)F)C(=O)C2)cn1)c1ccccc1)c1ccc(C#N)cc1 (single isomer, unassigned) [103 Isomer 1]",> 2000 nM
8,"CC(CNC(C(=O)Nc1ccc(N2CCN(CC(F)(F)F)C(=O)C2)cn1)c1ccccc1)c1ccc(C#N)cc1 (single isomer, unassigned) [103 Isomer 2]",14.3 nM
9,"CC(CNC(C(=O)Nc1ccc(N2CCN(CC(F)(F)F)C(=O)C2)cn1)c1ccccc1)c1ccc(C#N)cc1 (single isomer, unassigned) [103 Isomer 3]",1000 nM
10,"CC(CNC(C(=O)Nc1ccc(N2CCN(CC(F)(F)F)C(=O)C2)cn1)c1ccccc1)c1ccc(C#N)cc1 (single isomer, unassigned) [103 Isomer 4]",> 2000 nM
11,"CC(CNC(C(=O)Nc1ccc(-c2cn[nH]c2)cn1)c1ccccc1)c1ccc(C#N)cc1 (single isomer, unassigned) [104 Isomer 1]",1370 nM
12,"CC(CNC(C(=O)Nc1ccc(-c2cn[nH]c2)cn1)c1ccccc1)c1ccc(C#N)cc1 (single isomer, unassigned) [104 Isomer 3]",415 nM
13,"CC(CNC(C(=O)Nc1ccc(-c2cn[nH]c2)cn1)c1ccccc1)c1ccc(C#N)cc1 (single isomer, unassigned) [104 Isomer 4]",1020 nM
14,"C[C@H](CNC(C(=O)Nc1ccc(-c2ccn(C)c(=O)c2)cn1)c1ccccc1)c1ccc(C#N)cc1 (single isomer, unassigned) [105 Isomer 1]",> 2000 nM
15,"C[C@H](CNC(C(=O)Nc1ccc(-c2cc(=O)n(C)cn2)cn1)c1ccccc1)c1ccc(C#N)cc1 (single isomer, unassigned) [106 Isomer 1]",> 2000 nM
16,"C[C@H](CNC(C(=O)Nc1ccc(-c2cc(=O)n(C)cn2)cn1)c1ccccc1)c1ccc(C#N)cc1 (single isomer, unassigned) [106 Isomer 2]",25.5 nM
17,"Cc1nc(-c2ccc(NC(=O)C(NC[C@@H](C)c3ccc(C#N)cc3)c3ccccc3)nc2)no1 (single isomer, unassigned) [107 Isomer 1]",> 2000 nM
18,"Cc1nc(-c2ccc(NC(=O)C(NC[C@@H](C)c3ccc(C#N)cc3)c3ccccc3)nc2)no1 (single isomer, unassigned) [107 Isomer 2]",72.3 nM
19,"CC(CNC(C(=O)Nc1ccc(N2CCN(C)S2(=O)=O)cn1)c1ccccc1)c1ccc(C#N)cc1 (single isomer, unassigned) [108 Isomer 1]",> 2000 nM
20,"CC(CNC(C(=O)Nc1ccc(N2CCN(C)S2(=O)=O)cn1)c1ccccc1)c1ccc(C#N)cc1 (single isomer, unassigned) [108 Isomer 2]",23.7 nM

# The remaining lines, values ahead:
row,IC50,Compound
1,> 2000 nM,"CC(CNC(C(=O)Nc1ccc(N2CCN(C)S2(=O)=O)cn1)c1ccccc1)c1ccc(C#N)cc1 (single isomer, unassigned) [108 Isomer 3]"
2,> 2000 nM,"CC(CNC(C(=O)Nc1ccc(N2CCN(C)S2(=O)=O)cn1)c1ccccc1)c1ccc(C#N)cc1 (single isomer, unassigned) [108 Isomer 4]"
3,> 2000 nM,"C[C@H](CNC(C(=O)Nc1ccc(C2CC(=O)N(C)C2)cn1)c1ccccc1)c1ccc(C#N)cc1 (single isomer, unassigned) [109 Isomer 1]"
4,> 2000 nM,"C[C@H](CNC(C(=O)Nc1ccc(C2CC(=O)N(C)C2)cn1)c1ccccc1)c1ccc(C#N)cc1 (single isomer, unassigned) [109 Isomer 2]"
5,61.3 nM,"C[C@H](CNC(C(=O)Nc1ccc(C2CC(=O)N(C)C2)cn1)c1ccccc1)c1ccc(C#N)cc1 (single isomer, unassigned) [109 Isomer 3]"
6,528 nM,"Cc1c(-c2ccc(NC(=O)C(NC[C@@H](C)c3ccc(C#N)cc3)c3ccccc3)nc2)cnn1C (single isomer, unassigned) [114 Isomer 1]"
7,> 2000 nM,"Cc1cc(NC(=O)C(NC[C@@H](C)c2ccc(C#N)cc2)c2ccccc2)ncc1-c1cnn(C)c1 (single isomer, unassigned) [115 Isomer 1]"
8,443 nM,"Cn1cc(-c2ccc(NC(=O)C(NCCc3ccc(C#N)cc3)c3cccc(C#N)c3)nc2)cn1 (single isomer, unassigned) [116 Isomer 1]"
9,> 2000 nM,"Cn1cc(-c2ccc(NC(=O)C(NCCc3ccc(C#N)cc3)c3cccc(C#N)c3)nc2)cn1 (single isomer, unassigned) [116 Isomer 2]"
10,> 2000 nM,"Cn1cc(-c2ccc(NC(=O)C(NCCc3ccc(C#N)cc3)c3cccc(C(F)(F)F)c3)nc2)cn1 (single isomer, unassigned) [117 Isomer 1]"
11,> 2000 nM,"Cn1cc(-c2ccc(NC(=O)C(NCCc3ccc(C#N)cc3)c3cccc(C(F)(F)F)c3)nc2)cn1 (single isomer, unassigned) [117 Isomer 2]"
12,> 2000 nM,"CCCCCCc1cccc(C(NCCc2ccc(C#N)cc2)C(=O)Nc2ccc(-c3cnn(C)c3)cn2)c1 (single isomer, unassigned) [118 Isomer 1]"
13,1900 nM,"CCCCCCc1cccc(C(NCCc2ccc(C#N)cc2)C(=O)Nc2ccc(-c3cnn(C)c3)cn2)c1 (single isomer, unassigned) [118 Isomer 2]"
14,374 nM,"Cn1cc(-c2ccc(NC(=O)C(NCCc3ccc(C#N)cc3)c3ccc(C#N)cc3)nc2)cn1 (single isomer, unassigned) [119 Isomer 1]"
15,1590 nM,"Cn1cc(-c2ccc(NC(=O)C(NCCc3ccc(C#N)cc3)c3ccc(C#N)cc3)nc2)cn1 (single isomer, unassigned) [119 Isomer 2]"
16,> 2000 nM,"Cn1cc(-c2ccc(NC(=O)C(NCCc3ccc(C#N)cc3)c3ccc(C(F)(F)F)cc3)nc2)cn1 (single isomer, unassigned) [120 Isomer 1]"
17,> 2000 nM,"Cn1cc(-c2ccc(NC(=O)C(NCCc3ccc(C#N)cc3)c3ccc(C(F)(F)F)cc3)nc2)cn1 (single isomer, unassigned) [120 Isomer 2]"
18,> 2000 nM,"CCCCCCc1ccc(C(NCCc2ccc(C#N)cc2)C(=O)Nc2ccc(-c3cnn(C)c3)cn2)cc1 (single isomer, unassigned) [121 racemic]"
19,> 60000 nM,"Cn1cc(-c2ccnc(NC(=O)C(NCCc3ccc(C#N)cc3)c3ccccc3)c2)cn1 (single isomer, unassigned) [122 Isomer 1]"
20,48900 nM,"Cn1cc(-c2ccnc(NC(=O)C(NCCc3ccc(C#N)cc3)c3ccccc3)c2)cn1 (single isomer, unassigned) [122 Isomer 2]"
